Measured values as given in patent publication US12097380B2, “Shielding of magnetic field as a medical therapy” (Micromed Scientia, Inc., priority 2012, dated 2024).

Key:
[1] = system: non-small cell lung cancer cells A549; test: In vitro growth of A549 cells in the presence of Taxol, iron shielding box vs plastic box (CCK-8 cell viability); format: cell-based, human
Description: (§1) The surrounding magnetic field shielding device and the plastic box used in this experiment were the same as those described in Example 2 above.
The human non-small cell lung cancer cells (A549) and human breast cancer cell (MCF-7) were supplied by the Cell Resource Center, Shanghai Institute of Life Sciences. The cells were maintained in a monolayer and were grown at 37° C. in an atmosphere of 5% CO2 with moisture in RPMI 1640 medium, supplemented with 10% fetal bovine serum. The medium also contained […] Penicillin and 100 mg/L Streptomycin. The cells at exponentially growing phase were used in the experiments.
(§2) The human non-small cell lung cancer cells (A549) or the human breast cancer cells (MCF-7) were grown in 96 well plates. The growth of non-small cell lung cancer cell line and the breast cancer cell line were investigated while being exposed to environmental magnetic field or being shielded from environmental magnetic field. Each cell culture was separated into three equal portions. The first sample was cultured in a surrounding magnetic field shielded box (an iron shielding box). The second sample was cultured in a plastic box, and the third sample was cultured in the absence of any surrounding box as a control. All of the samples were placed in the incubator with an atmosphere containing 5% CO2 and at a temperature of 37° C. The cell growth rates were examined periodically by harvesting the cells and determining cell viability using the cell counting kit-8 and microplate reader RT-6000. The experiments were continued for four to seven days depending on the cell types and the respective growth rates.
(§3) Cell count kit-8 (CCK-8) ([…] manufactured by Dojindo Molecular Technologies, Inc.) allows sensitive colorimetric assays for the determination of cell viability. […]

[2] = system: Taxol-resistant non-small cell lung cancer cells A549-T24; test: In vitro growth of Taxol-resistant A549-T24 cells in the presence of Taxol, iron shielding box vs plastic box (CCK-8 cell viability); format: cell-based, human; settings: for growth of A549-T24 in the iron shielding box slower than the control cultured in a plastic box: 12 nM Taxol in medium, 37° C., shielded vs unshielded
Source text: as §1
The protocol described by Kavallaris et al., J. Clin. Invest., 100(5): 1282-1293 (1997)^[13] was followed to culture taxol-resistant human lung carcinoma cells A549. The human non-small cell lung cancer cells A549 were maintained in RPMI 1640 containing 10% FBS and 1% Penicillin-Streptomycin. For inducing its resistance to Taxol, in a stepwise manner, Taxol was added into the culture medium with periodically increasing its concentration. A549 cells were initially exposed to 3 nM of Taxol, and once normal growth was achieved, cells were maintained at this concentration. In two weeks, the Taxol dose was increased by two-fold, such as 3 nM, 6 nM, 12 nM, until the final drug concentration of 24 nM was achieved to develop Taxol-resistant cells. The obtained cells were maintained at a Taxol concentration of 24 nM. These Taxol-resistant cells were named as A549-T24.
as §2, with “The experiments were continued for four to seven days depending on the cell types and the respective growth rates.” left out
as §3

[3] = system: most sensitive non-small lung cancer cell; settings: as reported by Georgiadis et al. 1997, read-out: IC50 to Taxol; cited from earlier work

- IC50 ([1]; Homo sapiens, 120 h, A549, under shielding of environmental magnetic field, 5 days, read-out: IC50 of Taxol (drug concentration at which cell growth is suppressed to 50%)): ~5 nM
- IC50 ([2]; Homo sapiens, 96 h, A549-T24, under shielding of surrounding magnetic field, day 4): ~10 nM
SMILES: CC(=O)O[C@H]1C(=O)[C@@]2(C)[C@H]([C@H](OC(=O)c3ccccc3)[C@]3(O)C[C@H](OC(=O)[C@H](O)[C@@H](NC(=O)c4ccccc4)c4ccccc4)C(C)=C1C3(C)C)[C@]1(OC(C)=O)CO[C@@H]1C[C@@H]2O [Taxol, Paclitaxel]
- growth of A549 in the iron shielding box slower than the control cultured in a plastic box ([1]; 5 nM Taxol in medium, 37° C., 3 days of incubation, shielded vs unshielded, P<0.001): 16.3%
- growth of A549 in the iron shielding box decreased in comparison to the control cultured in a plastic box ([1]; 5 nM Taxol in medium, 37° C., 5 days of incubation, shielded vs unshielded, P<0.0005): 47.3%
- growth of A549-T24 in the iron shielding box slower than the control cultured in a plastic box ([2]; day 3, P<0.01): 11.2%
- growth of A549-T24 in the iron shielding box slower than the control cultured in a plastic box ([2]; day 4, P<0.001): 10.7%
- IC50 [3]: 9.9 nM
